Test results as given in US8592446B2, “[1,10]-phenanthroline derivatives for the treatment of neurodegenerative or haematological diseases” (Noscira, S.A., priority 2007, dated 2013).

Columns and labels:
[1] = test system: SH-SY5Y human neuroblastoma cells; assay: Toxicity: LDH activity release in SH-SY5Y cells; assay type: cell-based; details: 24 h; for Maximum concentration tested for toxicity: increasing concentrations from 1 μM up to 1 mM
Experimental: The potential effects on cell viability of the assayed compounds are assayed in SH-SY5Y human neuroblastoma cells, by quantification of Lactate dehydrogenase (LDH) activity release. SH-SY5Y human neuroblastoma cells are seeded into 96-well culture plates at 10^4 cells/well. The medium is then removed and the cells incubated with different concentrations of the compounds during 24 h. The compounds are tested at increasing concentrations starting from 1 μM, in fresh culture medium, in order to find the minimum concentration at which the compounds are toxic, up to a maximum of 1 mM. After 24 h, the medium is removed and cells attached to the bottom of the well are lysed by adding 50 μl of Krebs-Hepes; Triton X-100 1% during 5 minutes at room temperature. For LDH release quantification, the Roche cytotoxicity detection kit (Cat.
No. 11 644 793 001) is used. The LDH activity is measured by its absorbance at 492 nm with reference wavelength 620 nm.
In Table 1, for each compound the maximum concentration at which toxicity was tested is indicated in the second column. In the third column, it is indicated whether at this maximum concentration the compound was toxic or not. All the compounds, with the exception of Compound 3, resulted non-toxic at the concentration for which activity was found, in most of the cases even at a 1000-fold concentration. Thus, the compounds may be considered non-toxic.

[2] = test system: SH-SY5Y human neuroblastoma cells; assay: Protection against 6-OHDA-induced cell death, condition B (no fetal bovine serum); assay type: cell-based; details: preincubated 1 hour, 6-OHDA 50 μM 24 hours, read-out: Protect. 6-OHDA (−FBS) (minimum concentration with neuroprotective effect)
Excerpt: The aim of this experiment is to determine the protective effect of the compounds of formula (1) against the toxicity caused by 6-OHDA. This toxin induces a cell death similar to which occurs in Parkinson's disease, destroying dopaminergic neurons (“MPTP and 6-hydroxydopamine-induced neurodegeneration as models for Parkinson's disease: neuroprotective strategies”; Grunblatt E, et al.; J Neurol. 2000 Apr; 247 Suppl 2:II95-102).
Two or three days before the experiment, the SH-SY5Y human neuroblastoma cells are seeded into 96-well culture plate at a density of 10^4 cells/well. Cells are exposed to the treatment with 6-OHDA and, finally, cell death is measured by LDH quantification. As positive control we used NAC.
• B) NAC and the compound of formula (I) are preincubated during 1 hour before the treatment with 6-OHDA 50 μM during 24 hours. The assay is performed in a medium without any fetal bovine serum.
For each compound the minimum concentration of compound of formula (I) at which a neuroprotective effect is shown.

[3] = Chelating ability with Fe(II) (absorbance spectra); assay type: physicochemical; details: for Formation constant: Fe (II) complex 1:3 (ML3); for Dissociation grade / Stoichiometry / ε approx.: Fe (II) complex; for Ability to complex Fe (II) (spectrum of mixture vs sum of individual spectra): PBS 10 mM, pH 7.4 or 8, FIGS. 2-5
Experimental: FIG. 2 is an absorbance spectrum of the complex Fe(II)-Compound 4. Concentration of Fe(II) and Compound 4, 200 μM, PBS 10 mM, pH 8.
FIG. 3 is an absorbance spectrum of the complex Fe(II)-Compound 7. Concentration of Fe(II) and Compound 7 , 400 μM, PBS 10 mM, pH 8.
FIG. 4 is an absorbance spectrum of the complex Fe(II)-Compound 8. Concentration of Fe(II) and Compound 8, 200 μM, PBS 10 mM, pH 7.4.
FIG. 5 is an absorbance spectrum of the complex Fe(II)-Compound 10. Concentration of Fe(II) and Compound 10, 100 μM, PBS 10 mM, pH 7.4.
(§1) Therefore, it may be observed that the compounds of formula (I) have a high affinity to Fe (II) in comparison to the rest of metalic ions tested.

[4] = Chelating ability with Fe (III) (absorbance spectra); assay type: physicochemical; details: PBS 10 mM, pH 7.4, ligand and Fe(III) 200 μM, FIG. 1
Experimental: FIG. 1 is an absorbance spectrum of compounds 4, 7, 8 and 10 in absence and presence of Fe(III). PBS 10 mM, pH 7.4. Concentration of ligand and Fe(III), 200 μM.
Only one line is observed, as the spectra are overlapping (see FIG. 1).

[5] = Chelating ability with Cu (II) (absorbance spectra); assay type: physicochemical; details: for Ability to complex Cu (II) (spectrum of mixture vs sum of individual spectra): 200 μM, PBS 10 mM, pH 7.4, FIG. 6
Experimental: FIG. 6 depicts the absorbance spectra of the mixture of Cu (II) and each of the quelating ligands (Compound 4, Compound 7, Compound 8). Concentration of Cu(II) and all compounds 200 μM, PBS 10 mM, pH 7.4.
FIG. 7 is the absorbance spectra of the complex Cu(II)-Compound 10. Concentration 200 μM, PBS 10 mM, pH 7.4.
as §1

[6] = Chelating ability with Zn (II) (absorbance spectra); assay type: physicochemical; details: for Ability to complex Zn(II): PBS 10 mM, pH 7.4, FIGS. 8-11; for Dissociation grade / Stoichiometry / ε approx.: Zn (II) complex, pH 7.4, expecting time 24 h (4, 7) or 4 h (8, 10)
Experimental: FIG. 8 represents the absorbance spectra of the complex Zn(II)-Compound 4. Concentration 200 μM, PBS 10 mM, pH 7.4.
Concentration 180 μM, PBS 10 mM, pH 7.4.
Concentration 100 μM, PBS 10 mM, pH 7.4.
Concentration 20 μM, PBS 10 mM, pH 7.4. […]

SH-SY5Y cells = assay: Neuroprotection against Aβ25-35 toxicity (LDH assay); assay type: cell-based; details: Homo sapiens, pre-treated 1 hour, 200 μM Aβ25-35 24 hours, read-out: Protect. beta-Amyloid25-35 (minimum concentration showing neuroprotection)
Experimental: In order to evaluate potential neuroprotection of compounds, SH-SY5Y cells, cultured in 96-well plates, were pre-treated for 1 hour with the compound at different concentrations and then exposed 24 hours to 200 μM Aβ25-35 (Neosystem) to induce extensive oxidative stress and cell death. The ability of the compound of protecting against this toxicity is then evaluated by measuring intracellular LDH, using the colorimetric LDH assay.
It is widely accepted that the neurotoxic activity of Aβ resides within amino acids 25-35 (see e.g. Yankner B A et al., (1990) Neurotrophic and neurotoxic effects of amyloid β protein: reversal by tachykinin neuropeptides; Science 250:279-282).

[7] = pH 8*, expecting time 30 min (4) or 60 min (7)
[8] = Zn (II) complex 1:2 (ML2), pH 7.4, expecting time 24 h (7) or 4 h (8, 10)
[9] = pH 7.4, expecting time Immediate
[10] = Cu (II) complex, pH 7.4, expecting time 2 h

| Dissociation grade [3, 7] | Stoichiometry [3, 7] | ε approx. [3, 7] [L/mol/cm] | Ability to complex Fe (II) (spectrum of mixture vs sum of individual spectra) [3] | Ability to complex Fe (III) (change in absorbance spectra) [4] | Ability to complex Zn(II) [6] | Dissociation grade [6] | Stoichiometry [6] | ε approx. [6] [L/mol/cm] | Dissociation grade [3, 9] | Stoichiometry [3, 9] | ε approx. [3, 9] [L/mol/cm] | SMILES | Maximum concentration tested for toxicity [1] [mM] | Toxic at maximum concentration tested (Yes/No) ([1]; at 1 mM) | minimal effective concentration [2] [µM] | Formation constant [3, 7] | Ability to complex Cu (II) (spectrum of mixture vs sum of individual spectra) [5] | Formation constant [6, 8] | minimal effective concentration (SH-SY5Y cells) [µM] | Formation constant [3, 9] | other results |
| --- | --- | --- | --- | --- | --- | --- | --- | --- | --- | --- | --- | --- | --- | --- | --- | --- | --- | --- | --- | --- | --- |
| 0.023 ± 0.002 | 1:3 (ML3) | ~280 | able to complex the Fe (II) | no change in the absorbance spectra | complexed with Zn(II) to an extent | 13.4 ± 0.7 | 1:2 (ML2) | ~840 | – | – | – | CC(C)Sc1cc(/C=N/O)nc2c1ccc1cccnc12 [Compound 7, 4-Isopropylsulfanyl-[1,10]phenanthroline-2-carbaldehyde oxime] | 1 | Yes | 0.5 | 2.0 ± 0.6 · 10^15 | none of the ligands are able to complex the Cu (II) | 2.2 ± 0.6 · 10^10 l^2/mol^2 | – | – | – |
| – | – | – | able to complex the Fe (II) | no change in the absorbance spectra | complexed with Zn(II) to an extent | 7.7 ± 0.6 | 1:2 (ML2) | ~7100 | 0.022 ± 0.006 | 1:3 (ML3) | ~1600 | COCCOc1cc(/C=N/O)nc2c1ccc1cccnc12 [Compound 8, 4-(2-Methoxy-ethoxy)-[1,10]phenanthroline-2-carbaldehyde oxime] | 1 | No | 0.5 | – | none of the ligands are able to complex the Cu (II) | 1.4 ± 0.6 · 10^11 l^2/mol^2 | 0.5 | 4.0 ± 1.3 · 10^17 | – |
| 0.147 ± 0.002 | 1:3 (ML3) | ~1800 | able to complex the Fe (II) | no change in the absorbance spectra | complexed with Zn(II) to an extent | 46 ± 7 | 1:1 (ML) | ~1000 | – | – | – | CSc1cc(/C=N/O)nc2c1ccc1cccnc12 [Compound 4, 4-Methylsulfanyl-[1,10]phenanthroline-2-carbaldehyde oxime] | 1 | Yes | 0.5 | 8.2 ± 0.5 · 10^12 | none of the ligands are able to complex the Cu (II) | – | 0.5 | – | Formation constant ([6]; Zn (II) complex 1:1 (ML), pH 7.4, expecting time 24 h): 2.2 ± 0.6 · 10^4 l/mol |
| – | – | – | able to complex the Fe (II) | no change in the absorbance spectra | complexed with Zn(II) to an extent | 3.7 ± 0.6 | 1:2 (ML2) | ~9400 | 0.019 ± 0.004 | 1:3 (ML3) | ~6700 | CCN(CC)CCOc1cc(/C=N/O)nc2c1ccc1cccnc12 [Compound 10, 4-(2-Diethylamino-ethoxy)-[1,10]phenanthroline-2-carbaldehyde oxime] | 0.001 | – | 0.5 | – | – | 1.7 ± 0.4 · 10^13 l^2/mol^2 | 0.5 | 5.0 ± 1.0 · 10^17 | Toxic at maximum concentration tested (Yes/No) ([1]; at 1 μM): Yes; Formation constant ([5]; Cu (II) complex 1:1 (ML), pH 7.4, expecting time 2 h): 4.4 ± 0.6 · 10^6 l/mol; Dissociation grade [5, 10]: 3.8 ± 0.4; Stoichiometry [5, 10]: 1:1 (ML); ε approx. [5, 10]: ~400 L/mol/cm |
